Values quoted from earlier work in patent US20100068204A1, “4-ARYLOXYQUINOLIN-2(1H)-ONES AS MTOR KINASE AND PI3 KINASE INHIBITORS, FOR USE AS ANTI-CANCER AGENTS” (Wyeth, priority 2008, published 2010).

Experiments:
[1] = tested on: acute lymphoblastic leukemia xenograft; conditions: in vivo; cited from earlier work
[2] = single- and repeat-dosing; cited from earlier work
mTOR = mTOR (Homo sapiens, UniProt P42345); conditions: read-out: mTOR IC50; literature; mTOR complexes / mTOR enzymes; cited from earlier work
[3] = tested on: human tumor xenograft models; conditions: chronic oral administration, 400 mg/kg; A549, PC-3, WiDr; cited from earlier work

CO[C@H]1C[C@@H]2CC[C@@H](C)[C@@](O)(O2)C(=O)C(=O)N2CCCC[C@H]2C(=O)O[C@H]([C@H](C)C[C@@H]2CC[C@@H](OC(=O)C(C)(CO)CO)[C@H](OC)C2)CC(=O)[C@H](C)/C=C(\C)[C@@H](O)[C@@H](OC)C(=O)[C@H](C)C[C@H](C)/C=C/C=C/C=C/1C [Torisel]
activity in NOS/SCID xenograft mouse model of acute lymphoblastic leukemia [1]: active

O=C1NC(=O)/C(=C/c2ccc3nccc(-c4ccncc4)c3c2)S1 [GSK-1059615]
exposure in phase 1 clinical study [2]: lack of sufficient exposure

FC(F)c1nc2ccccc2n1-c1nc(N2CCOCC2)nc(N2CCOCC2)n1 [ZSTK474, 2-(2-difluoromethylbenzoimidazol-1-yl)-4,6-dimorpholino-1,3,5-triazine]
IC50 (mTOR): > 10 µM | tumor growth in mouse human xenograft cancer models [3]: completely inhibited growth
